Converted amounts (≈) assume the structure as drawn.
Legend:
Streptococcus pyogenes = assay: In vitro antibacterial activity against Streptococcus pyogenes 308A by agar dilution method using Mueller-Hinton; assay type: functional
Enterobacter cloacae = assay: In vitro antibacterial activity against Enterobacter cloacae 1321E by agar dilution method using Mueller-Hinton; assay type: functional
Klebsiella aerogenes = assay: In vitro antibacterial activity against Klebsiella aerogenes 1522E by agar dilution method using Mueller-Hinton; assay type: functional
Escherichia coli [1] = assay: In vitro antibacterial activity against Escherichia coli 078 by agar dilution method using Mueller-Hinton; assay type: functional
Pseudomonas aeruginosa [2] = assay: In vitro antibacterial activity against Pseudomonas aeruginosa 1592E by agar dilution method using Mueller-Hinton; assay type: functional
Staphylococcus aureus [3] = assay: In vitro antibacterial activity against Staphylococcus aureus SG 511 by agar dilution method using Mueller-Hinton; assay type: functional
Staphylococcus aureus [4] = assay: In vitro antibacterial activity against Staphylococcus aureus SG 285 by agar dilution method using Mueller-Hinton; assay type: functional
Staphylococcus aureus [5] = assay: In vitro antibacterial activity against Staphylococcus aureus SG 503 by agar dilution method using Mueller-Hinton; assay type: functional
Escherichia coli [6] = assay: In vitro antibacterial activity against Escherichia coli 1507E by agar dilution method using Mueller-Hinton; assay type: functional
Pseudomonas aeruginosa [7] = assay: In vitro antibacterial activity against Pseudomonas aeruginosa 1771M by agar dilution method using Mueller-Hinton; assay type: functional
Salmonella typhimurium = assay: In vitro antibacterial activity against Salmonella Typhimurium by agar dilution method using Mueller-Hinton; assay type: functional, Salmonella enterica subsp. enterica serovar Typhimurium; conditions: Salmonella enterica
Pseudomonas aeruginosa [8] = assay: In vitro antibacterial activity against Pseudomonas aeruginosa 9027 by agar dilution method using Mueller-Hinton; assay type: functional
[9] = Pharmacokinetic studies were carried out to determine the clearance after administration at 20 mg/kg intravenously in rat; assay type: ADME, organism-based; set-up: dose 20 mg/kg, route intravenous; conditions: in vivo, iv
[10] = The area under concentration-time curve(AUC) was determined at 20 mg/kg of compound dose, administered intravenously in rat; assay type: ADME, organism-based; set-up: dose 20 mg/kg, route intravenous; conditions: in vivo, iv

Row | SMILES | MIC (Streptococcus pyogenes) [µg/mL] | MIC (Enterobacter cloacae) [µg/mL] | MIC (Klebsiella aerogenes) [µg/mL] | MIC (Escherichia coli [1]) [µg/mL] | MIC (Pseudomonas aeruginosa [2]) [µg/mL] | MIC (Staphylococcus aureus [3]) [µg/mL] | MIC (Staphylococcus aureus [4]) [µg/mL] | MIC (Staphylococcus aureus [5]) [µg/mL] | MIC (Escherichia coli [6]) [µg/mL] | MIC (Pseudomonas aeruginosa [7]) [µg/mL] | MIC (Salmonella typhimurium) [µg/mL] | MIC (Pseudomonas aeruginosa [8]) [µg/mL] | clearance [9] [mL/min/kg] | AUC [10] [ng·h/mL]
1 | C[C@@H](O)[C@H]1C(=O)N2C(C(=O)O)=C(S[C@@H]3CN[C@H](CSc4nnnn4CCS(=O)(=O)N(C)C)C3)[C@H](C)[C@H]12 | 0.007 (≈ 0.0125 µM) | 0.025 (≈ 0.0445 µM) | 0.049 (≈ 0.0872 µM) | 0.025 (≈ 0.0445 µM) | 12.5 (≈ 22.3 µM) | 0.098 (≈ 0.174 µM) | 0.098 (≈ 0.174 µM) | 0.025 (≈ 0.0445 µM) | 0.025 (≈ 0.0445 µM) | 0.391 (≈ 0.696 µM) | 0.049 (≈ 0.0872 µM) | 6.25 (≈ 11.1 µM) | – | –
2 | C[C@@H](O)[C@H]1C(=O)N2C(C(=O)O)=C(S[C@@H]3CN[C@H](CSc4nnnn4CCO)C3)[C@H](C)[C@H]12 | 0.007 (≈ 0.0149 µM) | 0.049 (≈ 0.104 µM) | 0.049 (≈ 0.104 µM) | 0.025 (≈ 0.0531 µM) | 1.56 (≈ 3.32 µM) | 0.098 (≈ 0.208 µM) | 0.098 (≈ 0.208 µM) | 0.049 (≈ 0.104 µM) | 0.025 (≈ 0.0531 µM) | 0.195 (≈ 0.414 µM) | 0.049 (≈ 0.104 µM) | 1.56 (≈ 3.32 µM) | – | –
3 | C[C@@H](O)[C@H]1C(=O)N2C(C(=O)O)=C(S[C@@H]3CN[C@H](CSc4nnnn4CCC(N)=O)C3)[C@H](C)[C@H]12 | 0.013 (≈ 0.0261 µM) | 0.025 (≈ 0.0502 µM) | 0.049 (≈ 0.0985 µM) | 0.025 (≈ 0.0502 µM) | 0.781 (≈ 1.57 µM) | 0.098 (≈ 0.197 µM) | 0.098 (≈ 0.197 µM) | 0.025 (≈ 0.0502 µM) | 0.025 (≈ 0.0502 µM) | 0.195 (≈ 0.392 µM) | 0.049 (≈ 0.0985 µM) | 1.56 (≈ 3.14 µM) | – | –
4 | C[C@@H](O)[C@H]1C(=O)N2C(C(=O)O)=C(S[C@@H]3CN[C@H](CSc4nnnn4-c4ccccc4)C3)[C@H](C)[C@H]12 | 0.007 (≈ 0.0139 µM) | 0.098 (≈ 0.195 µM) | 0.391 (≈ 0.778 µM) | 0.195 (≈ 0.388 µM) | 50 (≈ 99.5 µM) | 0.049 (≈ 0.0975 µM) | 0.049 (≈ 0.0975 µM) | 0.025 (≈ 0.0497 µM) | 0.391 (≈ 0.778 µM) | 3.12 (≈ 6.22 µM) | 0.098 (≈ 0.195 µM) | 50 (≈ 99.5 µM) | – | –
5 | CNC(=O)CCn1nnnc1SC[C@@H]1C[C@H](SC2=C(C(=O)O)N3C(=O)[C@H]([C@@H](C)O)[C@H]3[C@H]2C)CN1 | 0.007 (≈ 0.0137 µM) | 0.025 (≈ 0.0489 µM) | 0.049 (≈ 0.0958 µM) | 0.025 (≈ 0.0489 µM) | 1.56 (≈ 3.05 µM) | 0.098 (≈ 0.192 µM) | 0.098 (≈ 0.192 µM) | 0.049 (≈ 0.0958 µM) | 0.025 (≈ 0.0489 µM) | 0.391 (≈ 0.764 µM) | 0.049 (≈ 0.0958 µM) | 1.56 (≈ 3.05 µM) | – | –
6 | C[C@@H](O)[C@H]1C(=O)N2C(C(=O)O)=C(S[C@@H]3CN[C@H](CSc4nnnn4C)C3)[C@H](C)[C@H]12 | 0.004 (≈ 0.00908 µM) | 0.025 (≈ 0.0567 µM) | 0.025 (≈ 0.0567 µM) | 0.025 (≈ 0.0567 µM) | 0.781 (≈ 1.77 µM) | 0.025 (≈ 0.0567 µM) | 0.049 (≈ 0.111 µM) | 0.025 (≈ 0.0567 µM) | 0.025 (≈ 0.0567 µM) | 0.195 (≈ 0.443 µM) | 0.025 (≈ 0.0567 µM) | 0.781 (≈ 1.77 µM) | 21.8 | 15900
7 | C[C@@H](O)[C@H]1C(=O)N2C(C(=O)O)=C(S[C@@H]3CN[C@H](CSc4nnnn4-c4ccncc4)C3)[C@H](C)[C@H]12 | 0.007 (≈ 0.0139 µM) | 0.098 (≈ 0.195 µM) | 0.195 (≈ 0.387 µM) | 0.098 (≈ 0.195 µM) | 50 (≈ 99.3 µM) | 0.049 (≈ 0.0973 µM) | 0.098 (≈ 0.195 µM) | 0.049 (≈ 0.0973 µM) | 0.195 (≈ 0.387 µM) | 0.781 (≈ 1.55 µM) | 0.049 (≈ 0.0973 µM) | 50 (≈ 99.3 µM) | – | –
